# Test results taken from patent US20070021421A1 (priority 2005, published 2007).
# “Also recorded” adds a separate entry of the source. Like-named read-outs stand apart in the source and are kept apart here.
# Assays:
# [1] = test system: ALS patients; settings: cited from earlier work
# [2] = test system: C57BL/6J mice
# Source text: Since PD, HD, and ALS share aspects of pathogenesis and pathology of motor dysfunction, gait dynamics were also studied in the SOD1 G93A transgenic mouse model of ALS (Gurney et al. Science 1994, 264: 1772-1775) to compare gait variability in mouse models of basal ganglia disease to a mouse model of motor neuron disease. Male C57BL/6J mice (7-8 weeks; ˜22 gm) were purchased from The Jackson Laboratory (Bar Harbor, Me.). Mice transgenic for the mutated human SOD1 G93A (TgN[SOD1-G93A]lGur) (SOD1 G93A) and wild-type human SOD1 (TgN[SOD1]2Gur) (wild-type controls) were purchased from The Jackson Laboratory (Bar Harbor, ME) when the mice were ˜7.5 weeks old. Animals were maintained on a 12-hour light: 12-hour dark schedule with ad libitum access to food and water. Handling and care of mice were consistent with federal guidelines and approved institutional protocols.
# MPTP. A mouse model of PD was generated in the following manner. The dopaminergic neurotoxin 1-methyl-4-phenyl-1,2,3,6-tetrahydropyridine (MPTP) (Sigma-Aldrich, St. Louis, Mo.) was dissolved in saline and was administered 30 mg/kg i.p. to 7 mice every 24 hours for 3 days (MPTP-treated mice), based on previously published studies (Colotla et al. Neurotoxicol Teratol 1990, 12: 405-407; Shimoji et al. Brain Res Mol Brain Res 2005, 134:103-108). Equivolume (0.2 ml) of saline was administered i.p. to 7 control mice every 24 hours for 3 days (saline-treated mice).
# 3NP. A mouse model of HD was generated in the following manner. The mitochondrial toxin 3-nitropropionic acid (3NP) (Sigma-Aldrich, St. Louis, Mo.) was dissolved in saline and was administered 3 times to 6 mice: 25 mg/kg i.p. twice, separated by 12 hours (cumulative dose of 50 mg/kg), then 25 mg/kg 24 hours later (cumulative dose of 75 mg/kg) (3NP-treated mice). Equivolume (0.2 ml) of saline was administered i.p. according to the same schedule to 6 control mice.
# (§1) Gait dynamics were recorded using ventral plane videography, as previously described (Kale et al. Alcohol Clin Exp Res 2004, 28: 1839-1848; Hampton et al. Physiol Behav 2004, 82: 381-389). Briefly, a motor-driven treadmill with a transparent treadmill belt was built. A high-speed digital video camera was mounted below the transparent treadmill belt. An acrylic compartment, ˜5 cm wide by ˜25 cm long, the length of which was adjustable, was mounted on top of the treadmill to maintain the mouse that was walking on the treadmill belt within the view of the camera. Digital video images of the underside of mice were collected at 80 frames per second. Accordingly, each image obtained represented a 12.5 ms time interval; and the paw area of each image indicated the temporal placement of the paw relative to the treadmill belt. The color images were converted to their binary matrix equivalents, and the areas (in pixels) of the approaching or retreating paws relative to the belt and camera were calculated throughout each stride. Plotting the area of each digital paw print (paw contact area) imaged sequentially in time provided a dynamic gait signal, representing the temporal record of paw placement relative to the treadmill belt (refer to FIGS. 1A and 1B). From these digital paw print images, indices of gait and gait variability were determined. Each gait signal for each limb comprised a stride duration (stride time), which included the stance duration when the paw of a limb was in contact with the walking surface, plus the swing duration when the paw of the same limb was not in contact with the walking surface. Stance duration was further subdivided into braking duration (increasing paw contact area over time) and propulsion duration (decreasing paw contact area over time) (refer to FIG. 1B).
# Stride frequency was calculated by counting the number of gait signals over time. Stride length was calculated from the equation: speed=stride frequency X stride length.
# [3] = test system: mice; settings: cited from earlier work
# [4] = test system: SOD1 G93A mice; test: Propranolol in drinking water of the SOD1 G93A mouse model of ALS (gait, walking ability, survival, body weight); format: in vivo
# Source text: as §1, with “Briefly,” for “Gait dynamics were recorded using ventral plane videography, as previously described (Kale et al. Alcohol Clin Exp Res 2004, 28: 1839-1848; Hampton et al. Physiol Behav 2004, 82: 381-389). Briefly,”, “Accordingly, each image obtained represented a 12.5 ms time interval; and the paw area of each image indicated the temporal placement of the paw relative to the treadmill belt.” left out
# Stride frequency was calculated by counting the number of gait signals over time. Stride length was calculated from the equation: speed=stride frequency X stride length. To obtain stance widths and paw placement angles at full stance, ellipses were fitted to the paws, and the centers, vertices, and major axes of the ellipses were determined. Forelimb and hind limb stance widths were calculated as the perpendicular distance between the major axes of the left and right paw images during peak stance. Gait data were collected and pooled from both the left and right forelimbs, and the left and right hind limbs.
# Accordingly, five SOD1 G93A mice were treated with propranolol, the drug having been added to their drinking water beginning at six weeks of age.
# [5] = test system: rats; settings: MPTP 3 mg/kg; rats (Tsai et al.); cited from earlier work
# [6] = 3NP 75 mg/kg cumulative dose, 34 cm/s, n=3
# [7] = 3NP 75 mg/kg cumulative dose, mice that could walk
# [8] = 3NP 75 mg/kg cumulative, two mice with hind limb gait failure, forelimb stepping only
# [9] = after 2nd administration of 3NP (50 mg/kg cumulative)
# [10] = cumulative dose of 560 mg/kg of 3NP
# [11] = MPTP 90 mg/kg cumulative dose, 34 cm/s
# [12] = MPTP after 3 treatments, 34 cm/s
# [13] = MPTP, 3 administrations of 30 mg/kg, 34 cm/s
smiles,measurement,setting,value
Nc1nc2ccc(OC(F)(F)F)cc2s1 [Riluzole],side effects,[1],causes liver damage
"O=C(O)CC[N+](=O)[O-] [3NP, 3-nitropropionic acid]",stride length,"[2]; 3NP 75 mg/kg cumulative dose i.p., 34 cm/s, n=3 mice that could walk",7.3 ± 0.1 cm
same,% Stance Duration,[2]; [6],59.4±2.3%
same,% Swing Duration,[2]; [6],40.6±2.3%
same,Forelimb Paw Placement Angle,[2]; [6],3.5 ± 1.1 °
same,Forelimb Stance Width,[2]; [6],1.7 ± 0.1 cm
same,Hind limb Paw Placement Angle,[2]; [6],15.2±1.0 °
same,Hind limb Stance Width,[2]; [6],2.8±0.2 cm
same,Stride Duration,[2]; [6],217 ± 5 ms
same,Stride Frequency,[2]; [6],4.9 ± 0.1 Hz
same,percentage of stance duration spent in propulsion (propulsion/stance) of the hind limbs,[2]; [6],45.2±2.5%
same,CV of forelimb stance width,[2]; [7],17.3±2.4%
same,CV of forelimb stride length,[2]; [7],17.9±1.6%
same,Stance width variability of the forelimbs,[2]; [7],0.31±0.04 cm
same,Hind limb stride length variability and hind limb stance width variability,"[2]; 3NP 75 mg/kg cumulative dose, mice that could walk, vs saline-treated mice",not different
same,Stride length variability of the forelimbs,"[2]; 3NP 75 mg/kg cumulative dose, three mice that could walk",1.31±0.09 cm
same,stance duration (forelimbs),[2]; [8],133 ± 5 ms
same,stride frequency (forelimbs),[2]; [8],5.0±0.1 Hz
same,stride length of forelimbs,[2]; [8],7.1±0.1 cm
same,"Stride length, stride frequency, stance duration, and swing duration",[2]; after 1st and 2nd administrations of 25 mg/kg 3NP,not affected
same,CV of forelimb stance width,[2]; [9],15.0±1.2%
same,Stance width variability of the forelimbs,[2]; [9],0.28±0.01 cm
same,stride length variability and stance width variability of the hind limbs,[2]; [9],Neither stride length variability nor stance width variability of the hind limbs was affected
same,paw placement angle of the hind limbs,"[2]; after 2nd administration of 3NP (cumulative dose of 50 mg/kg), n=6",16.6±1.2 °
same,3NP-treated mice that could not walk on the treadmill belt,"[2]; after 3rd administration (75 mg/kg cumulative dose), 34 cm/s, 6 mice",half
same,effect of aggressive doses,"[2]; aggressive (higher) doses of 3NP, data not shown",high mortality or the inability of the mice to walk at all on the treadmill belt
same,forelimb stride length,[3]; [10],comparable to saline-treated mice
same,hind limb stride length,[3]; [10],shortened
same,stride length of forelimbs and hind limbs,[3]; cumulative dose of 3NP 340 mg/kg,no differences
CC(C)NCC(O)COc1cccc2ccccc12 (centres unmarked) [propranolol],increase in paw placement angle variability with disease progression,[4]; age 12 weeks through 18 weeks,blunted or prevented; also recorded: prevented or diminished
same,extent of gait disturbances,"[4]; propranolol in drinking water from age ~42 days, five mice",mitigated and delayed
same,stride length,"[4]; propranolol in drinking water, vs longer strides with untreated tap water",more normal
same,body weight,"[4]; relative to tap water-treated control mice, FIG. 8",reduction in body weight
same,mice that could successfully walk on a moving treadmill belt,"[4]; ~16 weeks of age, tap water controls one out of five",three out of five
same,mice surviving,"[4]; ~age 17 weeks, five mice per group, tap water controls one",3
"CN1CC=C(c2ccccc2)CC1 [MPTP, 1-methyl-4-phenyl-1,2,3,6-tetrahydropyridine]",Forelimb Paw Placement Angle,[2]; [11],2.6 ± 0.4 °
same,Forelimb Stance Width,[2]; [11],1.6 ± 0.1 cm
same,Hind limb Paw Placement Angle,[2]; [11],10.8 ± 1.3 °
same,Hind limb Stance Width,[2]; [11],2.2 ± 0.1 cm
same,Stride Duration,"[2]; MPTP 90 mg/kg cumulative dose, 34 cm/s, n=7",194 ± 1 ms
same,% Stance Duration,"[2]; MPTP 90 mg/kg cumulative dose, 34 cm/s, stance/stride",55.9 ± 1.1%
same,% Swing Duration,"[2]; MPTP 90 mg/kg cumulative dose, 34 cm/s, swing/stride",44.1 ± 1.1%
same,CV of forelimb stance width,[2]; [12],16.7±1.3%
same,CV of hind limb stance width,[2]; [12],9.1±1.1%
same,Stance width variability of the forelimbs,[2]; [12],0.26±0.01 cm
same,Stance width variability of the hind limbs,[2]; [12],0.20±0.02 cm
same,coefficient of variation (CV) of forelimb stride length,[2]; [12],13.6±0.8%
same,CV of hind limb stride length,"[2]; MPTP after 3 treatments, 34 cm/s, NS vs saline",10.0±1.5%
same,Stride length variability of the forelimbs,"[2]; MPTP after 3 treatments, standard deviation, 34 cm/s",0.91±0.04 cm
same,Stride length variability of the hind limbs,"[2]; MPTP after 3 treatments, vs saline-treated mice",not different
same,stance duration of the forelimbs,[2]; [13],116 ± 2 ms
same,swing duration of the hind limbs,[2]; [13],92 ± 3 ms
same,stride length,[5],significantly reduce stride length
